Measured values as given in paper PMC4709452 (Frontiers in Pharmacology, 2016).

Columns and labels:
[1] = tested on: anesthetized rats; assay: Basal cardiovascular parameters in anesthetized, pre-treated rats; type: in vivo, rat; conditions: 15 min after i.v. bolus (enalaprilat 0.1 mg/kg, Plummer's inhibitor 0.75 mg/kg, icatibant 10 μg/kg, B-9858 20 μg/kg), means ± SEM
Text: (§1) The femoral arterial catheter implanted to monitor direct blood pressure was connected to a pressure transducer (TSD 104A, Biopac Systems Inc., Goleta, CA, USA) coupled to a computer-based data acquisition system (MP100, Biopac Systems Inc., Goleta, CA, USA) to continuously record pulsate arterial pressure. The animals were maintained under anesthesia and were warmed with a heated pad.
(§2) The mechanism subserving the cardiovascular responses to i.v. injections of increasing doses of the different BK agonists was first investigated in animals pretreated with the ACE inhibitor, enalaprilat. In these experiments, the animals were separated in five groups depending on the agonist tested. Enalaprilat was intravenously administered as bolus (0.1 mg/kg, 0.1 ml) following a 10 min period of baseline measurements of HR and blood pressure. Fifteen minutes later, dose-response curves to BK, BK-His-Leu, B-9972, BK-Arg, or BK-Ala-Pro were obtained in the indicated group of rats, as described above. Further experiments were made in rats pretreated with the Plummer’s inhibitor (mercaptomethyl- 3-guanidinoethylthiopropanoic acid), a high affinity inhibitor of arginine carboxypeptidases that is an arginine analog ([Plummer and Ryan, 1981]). In these experiments, the inhibitor was intravenously administered as bolus (0.75 mg/kg, 0.1 ml) followed 15 min later by the i.v. injection of increasing doses of BK or BK-Arg, in two different groups of rats. […] In these experiments, icatibant was intravenously administered as bolus (10 μg/kg, 0.1 ml) 15 min before the i.v. injection of increasing doses of BK, BK-His-Leu, B-9972, BK-Ala-Pro, or BK-Arg, in separated groups of rats, as above. The doses of different inhibitors were based on preliminary experiments and from studies performed by others ([Ishida et al., 1989]; [Wirth et al., 1991]; [Muto et al., 2003]), with deliberate low dosing for peptidase inhibitors for the sake of their selectivity of action. Whether a component of BK hemodynamic effects is mediated by the B1R was assessed in rats pre-treated with the specific B1R antagonist, B-9858 (20 μg/kg, 0.1 ml). B-9858 (Lys-Lys-[Hyp^3, Igl^5, D-Igl^7, Oic^8]des-Arg^9-BK) is a selective B1R antagonist ([Leeb-Lundberg et al., 2005]) that has been found active at the rat B1R ([Scott et al., 2003]).
Baseline values for MAP and HR measured in the untreated control group or 15 min after i.v. pretreatment with enalaprilat, icatibant or the Plummer’s inhibitor are shown in Table 2. While no significant changes in basal values of MAP were noted between the enalaprilat and Plummer’s inhibitor pretreated groups, a slight but significant reduction in basal MAP was found between the icatibant pretreated group and the control group. Furthermore, slight but significant reductions in basal HR were noted between the icatibant and Plummer’s inhibitor pretreated groups and the control group, while a small significant increase in basal HR was found between the enalaprilat pretreated groups and the control group.

[2] = tested on: anesthetized rats; assay: In vivo vascular reactivity: hypotensive (MAP) response to i.v. bolus injections; set-up: species or system rat; conditions: for doses at which the decrease in MAP was significant compared to vehicle: doses tested 0.025-6.4 μg/kg, untreated anesthetized rats, Dunnett's test
Description: (§3) At the end of the acclimation period, the rats were anesthetized with sodium pentobarbital (50 mg kg^-1, i.p., supplemented as required) and had two separate catheters implanted; one into the right jugular vein [for intravenous (i.v.) injection] and the other into the left femoral artery (for direct measurement of blood pressure and heart rate (HR). In some experiments, a pulsed Doppler flow probe ([Haywood et al., 1981]) was also implanted around the distal abdominal aorta (below the ileocecal artery) through a midline abdominal incision to monitor changes in hindquarter hemodynamic, according to the method developed by [Gardiner and Bennett (1988)] and as previously described ([Bachelard et al., 1992b]). The probes wires were connected to a pulsed Doppler monitoring system (VF-1 Doppler flowmeter; Crystal Biotech, Holliston, MA, USA) modified to operate with a pulse repetition frequency of 125 kHz ([Gardiner et al., 1990]) and fitted with HVPD-20 modules. The mean Doppler signal represents the average hindquarter blood flow velocity, a relative index of blood flow. […] Experiments started at least 30 min following the end of surgery in anesthetized rats.
as §1
The experiments were initiated after allowing at least 20 min for stabilization. Then, baseline measurements of HR and phasic and mean arterial blood pressure (MAP) were made over a period of 10 min. […] Peptides were dissolved in isotonic saline (0.9% NaCl) containing 0.1% BSA to prevent the adsorption of peptide to the glassware and plastic surfaces. All i.v. injections were given as 100 μl boluses which were washed in with a further 100 μl of saline (the dead space of the catheter). Only one peptide was tested per group of rats and each injection started with saline-BSA 0.1% followed by the lowest dose of peptide. The next dose was administered once all recorded cardiovascular parameters had returned to baseline after the previous injection (usually 2–10 min). At the end of the experiments each animal was euthanized with an overdose of sodium pentobarbitone (240 mg/kg, i.v.).
as §2, with “The doses of different inhibitors were based on preliminary experiments and from studies performed by others ([Ishida et al., 1989]; [Wirth et al., 1991]; [Muto et al., 2003]), with deliberate low dosing for peptidase inhibitors for the sake of their selectivity of action. Whether a component of BK hemodynamic effects is mediated by the B1R was assessed in rats pre-treated with the specific B1R antagonist, B-9858 (20 μg/kg, 0.1 ml). B-9858 (Lys-Lys-[Hyp^3, Igl^5, D-Igl^7, Oic^8]des-Arg^9-BK) is a selective B1R antagonist ([Leeb-Lundberg et al., 2005]) that has been found active at the rat B1R ([Scott et al., 2003]).” left out

[3] = tested on: anesthetized rats; assay: In vivo vascular reactivity: heart rate changes after i.v. bolus injections; set-up: species or system rat
Description: as §3, with “rats. […]” for “rats.”
The experiments were initiated after allowing at least 20 min for stabilization. […] The next dose was administered once all recorded cardiovascular parameters had returned to baseline after the previous injection (usually 2–10 min). […]

[4] = icatibant 10 μg/kg i.v. 15 min before, agonist 0.025-6.4 μg/kg i.v.

C[C@H](N[C@@H](CCc1ccccc1)C(=O)O)C(=O)N1CCC[C@H]1C(=O)O [Enalaprilat, enalaprilat]
Basal mean arterial blood pressure (MAP) after pre-treatment ([1]; control 103.1 ± 1.8): 99.2 ± 1.5
Basal heart rate (HR) after pre-treatment ([1]; control 393 ± 6, in bpm): 416 ± 6ˆ*

N=C(N)NCCSCC(CS)C(=O)O (stereo not drawn) [Plummer’s inhibitor, mercaptomethyl-3-guanidinoethylthiopropanoic acid]
Basal mean arterial blood pressure (MAP) after pre-treatment ([1]; control 103.1 ± 1.8): 107.1 ± 4.7
Basal heart rate (HR) after pre-treatment ([1]; control 393 ± 6, in bpm): 353 ± 17ˆ*

D-Arg-[Hyp^3, Thi^5, D-Tic^7, Oic^8] bradykinin [Icatibant]
Basal mean arterial blood pressure (MAP) after pre-treatment ([1]; control 103.1 ± 1.8, in mmHg): 95.3 ± 1.6ˆ*
Basal heart rate (HR) after pre-treatment ([1]; control 393 ± 6, in bpm): 356 ± 8ˆ**

D-Arg-[Hyp^3,Igl^5,Oic^7,Igl^8]-BK [B-9972]
effect of enalaprilat pretreatment on the dose-dependent hypotensive response ([2]; enalaprilat 0.1 mg/kg i.v. 15 min before, agonist 0.025-6.4 μg/kg i.v.): not affected
half-recovery time of hypotensive episodes compared with a similar dose of BK ([2]; i.v. bolus, for B-9972 the highest dose): significantly longer
reduction of apparent hypotensive potency by icatibant ([2]; icatibant 10 μg/kg i.v. 15 min before): about 10 fold
effect of icatibant pretreatment on the hypotensive response [2, 4]: significantly abated

Lys-Lys-[Hyp^3, Igl^5, D-Igl^7, Oic^8]des-Arg^9-BK [B-9858]
Basal mean arterial blood pressure (MAP) after pre-treatment ([1]; control 103.1 ± 1.8): 103.3 ± 6.2
Basal heart rate (HR) after pre-treatment ([1]; control 393 ± 6, in bpm (unit assumed)): 397 ± 11

bradykinin (RPPGFSPFR; Bradykinin; UniProt P01042 381-389, looked up) [BK]
effect of B-9858 (B1R antagonist) pretreatment on the hypotensive response ([2]; B-9858 20 μg/kg i.v.): did not significantly modify
effect of Plummer's inhibitor pretreatment on the hypotensive response ([2]; Plummer's inhibitor 0.75 mg/kg i.v. 15 min before): no effect
potentiation of the hypotensive effect by enalaprilat pretreatment ([2]; enalaprilat 0.1 mg/kg i.v. 15 min before): ~15 fold
doses at which the decrease in MAP was significant compared to vehicle ([2]; i.v. bolus): ≥ 0.4 µg/kg
effect of icatibant pretreatment on the hypotensive response [2, 4]: significantly and extensively inhibited
dose at which a significant bradycardia preceded tachycardia [3]: 6.4 µg/kg
doses at which tachycardia accompanied the hypotensive response ([3]; doses tested 0.025-6.4 μg/kg, compared with vehicle): ≥ 0.4 µg/kg

des-Arg^9-BK
effect on MAP at the dose of 0.025 μg/kg ([2]; i.v. bolus, compared to vehicle, n = 9): no significant effect
doses at which the decrease in MAP was significant compared to vehicle ([2]; i.v. bolus): ≥ 0.1 µg/kg
